Patent US11957783B2, “Topical immunosensitizers to treat viral and fungal infections” (Squarex, LLC, priority 2018, dated 2024)
Marks after values point to notes of the source that are not given here.

System: peripheral blood mononuclear cells (PBMC)
Test: Cytokine and immune-function gene expression of PBMC in vitro (qRT-PCR, 41 immune-related genes)
Assay type: cell-based, human
Method: After a screening visit at which blood was drawn to test for IgG antibody against HSV-1 and subjects were interviewed for inclusion/exclusion criteria, selected subjects returned for blood draws on day 1. After the blood draw on day 1, subjects in group A only were dosed with SADBE. A petrolatum donut was applied with a cotton swab to form about a 1 cm diameter donut on skin on the inner aspect of the upper arm. Then a separate cotton swab was dipped in a 2% SADBE solution (w/v) in DMSO, and the swab was then used to apply about 10-20 mg of solution over about a 1 cm diameter circle within the petrolatum donut. Immediately after application, the application site was covered with TEGADERM. Subjects were advised to remove the TEGADERM and rinse and wipe the spot three hours later. The group A subjects then returned for blood draws on days 15 and 57 and were queried about adverse events on those dates.
PBMC were isolated using SepMate PBMC isolation tubes (Stem Cell Technologies, Vancouver, Canada) and Ficoll-Paque according to the manufacturer's instructions. PBMC were isolated and suspended in negative control medium at 2 million cells/ml. PBMC suspension (100 μL) was added to 100 μL of medium in quadruplicate in 96-well plates. The plates were prepared in advance and stored at −70° C. The wells were in five different conditions in quadruplicate with these final concentrations after addition of the 100 μL of PBMC suspension in negative control medium. • 1. Negative control in medium (RPMI with glutamine and pen/strep, supplemented with 10% human A/B serum). • 2. Medium plus 16 μg/ml protein from heat-inactivated HSV-1-infected Vero cell extracts. • 3. Medium plus heat-inactivated HSV-1 cell-free virus at a final 7.5 million pfu/ml. • 4. Medium plus Candida cell extract. (Greer item number M15A50, 20,000 pnu/ml allergenic extract mixed molds Candida albicans, was diluted 1/50 into medium). • 5. Positive control, medium plus 10 μg/ml concanavalin A.
Two plates were created for each subject at each collection point. One plate was incubated for 2 days at 37° C. in a humidified 5% CO2 atmosphere and then RNA was isolated from the pooled contents of the 4 wells of a given condition for a specific patient, and the RNA was stored at −70° C. and subsequently used for quantitative real time PCR analysis of gene expression of 41 immune-related genes.
As noted above, after 2 days of growth of the PBMC in a 37° C. humidified 5% CO2 incubator in a 96-well plate, four wells of a single condition (negative control, positive control, heat-inactivated HSV-1, HSV-1-infected cell extracts, or Candida extract) with cells from a single subject (200 μL in each well) were pooled, and the RNA was immediately isolated with Trizol reagent and chloroform by Qiagen RNeasy MiniElute clean up kit Qiagen cat #74204, according to manufacturer's instructions into a final volume of 13 μL, and then flash frozen on powdered dry ice, and stored at −70° C. in aliquots of 3 μL for RNA quantification and 10 μL for PCR analysis.
RNA was preamplified with the Qiagen RT2 PreAMP cDNA synthesis kit (Ref. 330451) and custom RT2 PreAmp primer mix (Ref. 330141) starting with about 50 ng RNA according to the procedure of RT preamp cDNA synthesis handbook date March 2011, pages 17-20. The amplification reactions (final 120 μL) were frozen at −70° C. and used for qPCR analysis the next day.
qPCR was done with the Qiagen RT PCR profiler gene analysis kit (catalog number 330451) using RT2 Sybr Green Rox qPCR Mastermix (24) (Part 330523) and Custom RT2 PCR array plates (Ref. 330171). For this 675 μL 2×RT2 SYBR green mastermix, 51 μL pre-AMP synthesis reaction, and 623 μL RNase free water were mixed, and then 25 μL of the mixture was added to 48 wells on the left or right half of the custom PCR plate. The PCR instrument was Applied Biosystems 7900HT fast real time PCR. […]

[1] = PBMC + Candida extract, group A day 57 vs day 1 (pre-dose), one topical 2% SADBE dose
[2] = PBMC + HSV-1-infected cell extracts (CE), group A day 57 vs day 1 (pre-dose), one topical 2% SADBE dose
[3] = PBMC + heat-killed HSV-1 virus, group A day 57 vs day 1 (pre-dose), one topical 2% SADBE dose

## CCCCOc1c(OCCCC)c(=O)c1=O [SADBE, 3,4-Dibutoxy-3-cyclobutene-1,2-dione]
[1]
  ratio of absolute expression in A57 vs. A1: FOXP3: 2.01
  ratio of absolute expression in A57 vs. A1: GATA3: 0.28
  ratio of absolute expression in A57 vs. A1: ICAM1: 1.27
  ratio of absolute expression in A57 vs. A1: IFNA1: 2.13
  ratio of absolute expression in A57 vs. A1: IFNB1: 0.93
  ratio of absolute expression in A57 vs. A1: IFNG: 8.54
  ratio of absolute expression in A57 vs. A1: IL1B: 1.73
  ratio of absolute expression in A57 vs. A1: IL1R1: 0.9
  ratio of absolute expression in A57 vs. A1: IL1RN: 1.91
  ratio of absolute expression in A57 vs. A1: IL2: 6.31
  ratio of absolute expression in A57 vs. A1: IL4: 1.52
  ratio of absolute expression in A57 vs. A1: IL5: 1.1
  ratio of absolute expression in A57 vs. A1: IL8: 1.89
  ratio of absolute expression in A57 vs. A1: IL10: 1.12
  ratio of absolute expression in A57 vs. A1: IL12A: 1.64
  ratio of absolute expression in A57 vs. A1: IL12B: 3.61
  ratio of absolute expression in A57 vs. A1: IL13: 4.28
  ratio of absolute expression in A57 vs. A1: IL15: 2.18
  ratio of absolute expression in A57 vs. A1: IL16: 0.81
  ratio of absolute expression in A57 vs. A1: JAK2: 1.68
  ratio of absolute expression in A57 vs. A1: LTA: 1.94
  ratio of absolute expression in A57 vs. A1: LYZ: 0.93
  ratio of absolute expression in A57 vs. A1: MX1: 1.34
  ratio of absolute expression in A57 vs. A1: NOD1: 1.18
  ratio of absolute expression in A57 vs. A1: SPP1: 7.34
  ratio of absolute expression in A57 vs. A1: STAT1: 3.36
  ratio of absolute expression in A57 vs. A1: STAT4: 1.76
  ratio of absolute expression in A57 vs. A1: TNF: 1.22
  ratio of absolute expression in A57 vs. A1: TNFSF10: 1.52
  ratio of absolute expression in A57 vs. A1: TNFSF13B: 1.62
[2]
  ratio of absolute expression in A57 vs. A1: CCL2: 1.21
  ratio of absolute expression in A57 vs. A1: CCL3: 4.6
  ratio of absolute expression in A57 vs. A1: CCL7: 0.75
  ratio of absolute expression in A57 vs. A1: CCR5: 0.93
  ratio of absolute expression in A57 vs. A1: CD80: 0.93
  ratio of absolute expression in A57 vs. A1: CXCL2: 2.79
  ratio of absolute expression in A57 vs. A1: CXCL5: 6.03
  ratio of absolute expression in A57 vs. A1: CXCL9: 0.91
  ratio of absolute expression in A57 vs. A1: CXCL10: 0.49
  ratio of absolute expression in A57 vs. A1: CXCL11: 0.31
  ratio of absolute expression in A57 vs. A1: DDX58: 0.94
  ratio of absolute expression in A57 vs. A1: FOXP3: 1.11
  ratio of absolute expression in A57 vs. A1: GATA3: 2.6
  ratio of absolute expression in A57 vs. A1: ICAM1: 0.77
  ratio of absolute expression in A57 vs. A1: IFNA1: 1.29
  ratio of absolute expression in A57 vs. A1: IFNB1: 0.65
  ratio of absolute expression in A57 vs. A1: IFNG: 5.72
  ratio of absolute expression in A57 vs. A1: IL1B: 21.45
  ratio of absolute expression in A57 vs. A1: IL1R1: 1.11
  ratio of absolute expression in A57 vs. A1: IL1RN: 0.79
  ratio of absolute expression in A57 vs. A1: IL2: 2.48
  ratio of absolute expression in A57 vs. A1: IL4: 0.89
  ratio of absolute expression in A57 vs. A1: IL5: 0.5
  ratio of absolute expression in A57 vs. A1: IL8: 3.86
  ratio of absolute expression in A57 vs. A1: IL10: 3.29
  ratio of absolute expression in A57 vs. A1: IL12A: 0.89
  ratio of absolute expression in A57 vs. A1: IL12B: 0.23
  ratio of absolute expression in A57 vs. A1: IL13: 2.28
  ratio of absolute expression in A57 vs. A1: IL15: 0.87
  ratio of absolute expression in A57 vs. A1: IL16: 1.02
  ratio of absolute expression in A57 vs. A1: JAK2: 0.82
  ratio of absolute expression in A57 vs. A1: LTA: 0.99
  ratio of absolute expression in A57 vs. A1: LYZ: 0.29
  ratio of absolute expression in A57 vs. A1: MX1: 0.66
  ratio of absolute expression in A57 vs. A1: NOD1: 0.89
  ratio of absolute expression in A57 vs. A1: SPP1: 5.38
  ratio of absolute expression in A57 vs. A1: STAT1: 0.91
  ratio of absolute expression in A57 vs. A1: STAT4: 1.01
  ratio of absolute expression in A57 vs. A1: TNF: 1.2
  ratio of absolute expression in A57 vs. A1: TNFSF10: 0.88
  ratio of absolute expression in A57 vs. A1: TNFSF1313: 1.07
[3]
  ratio of absolute expression in A57 vs. A1: CCL2: 1.71
  ratio of absolute expression in A57 vs. A1: CCL3: 3.73
  ratio of absolute expression in A57 vs. A1: CCL7: 1.81
  ratio of absolute expression in A57 vs. A1: CCR5: 1.35
  ratio of absolute expression in A57 vs. A1: CD80: 1.25
  ratio of absolute expression in A57 vs. A1: CXCL2: 1.58
  ratio of absolute expression in A57 vs. A1: CXCL5: 2.52
  ratio of absolute expression in A57 vs. A1: CXCL9: 2.5
  ratio of absolute expression in A57 vs. A1: CXCL10: 1
  ratio of absolute expression in A57 vs. A1: CXCL11: 0.4
  ratio of absolute expression in A57 vs. A1: DDX58: 0.95
  ratio of absolute expression in A57 vs. A1: FOXP3: 2.46
  ratio of absolute expression in A57 vs. A1: GATA3: 0.32
  ratio of absolute expression in A57 vs. A1: ICAM1: 1.07
  ratio of absolute expression in A57 vs. A1: IFNA1: 1.34
  ratio of absolute expression in A57 vs. A1: IFNB1: 0.87
  ratio of absolute expression in A57 vs. A1: IFNG: 11.01
  ratio of absolute expression in A57 vs. A1: IL1B: 5.09
  ratio of absolute expression in A57 vs. A1: IL1R1: 0.97
  ratio of absolute expression in A57 vs. A1: IL1RN: 1.48
  ratio of absolute expression in A57 vs. A1: IL2: 2.11
  ratio of absolute expression in A57 vs. A1: IL4: 1.32
  ratio of absolute expression in A57 vs. A1: IL5: 0.56
  ratio of absolute expression in A57 vs. A1: IL8: 3.3
  ratio of absolute expression in A57 vs. A1: IL10: 2.29
  ratio of absolute expression in A57 vs. A1: IL12A: 1.48
  ratio of absolute expression in A57 vs. A1: IL12B: 2.08
  ratio of absolute expression in A57 vs. A1: IL13: 3.02
  ratio of absolute expression in A57 vs. A1: IL15: 1.54
  ratio of absolute expression in A57 vs. A1: IL16: 0.82
  ratio of absolute expression in A57 vs. A1: JAK2: 1.26
  ratio of absolute expression in A57 vs. A1: LTA: 1.84
  ratio of absolute expression in A57 vs. A1: LYZ: 0.53
  ratio of absolute expression in A57 vs. A1: MX1: 0.66
  ratio of absolute expression in A57 vs. A1: NOD1: 1.14
  ratio of absolute expression in A57 vs. A1: SPP1: 15.29
  ratio of absolute expression in A57 vs. A1: STAT1: 1.41
  ratio of absolute expression in A57 vs. A1: STAT4: 1.69
  ratio of absolute expression in A57 vs. A1: TNF: 1.19
  ratio of absolute expression in A57 vs. A1: TNFSF10: 1.01
  ratio of absolute expression in A57 vs. A1: TNFSF13B: 1.23
Virus, group A day 57 after SADBE
  Ratio of absolute IFNG gene expression in group A vs. Groups B + C pooled: 3.359*
All three stimuli, PBMC
  IFNG expression in group A on day 57 than day 1: at least 8 fold
